Source: patent EP1135374B9, “BENZIMIDAZOLE COMPOUNDS THAT ARE VITRONECTIN RECEPTOR ANTAGONISTS” (SCHERING CORPORATION, priority 1998, dated 2000)
pIC50: −log10 of the molar value.

Tests used:
[1] = target: T1, αvβ3 receptor (purified from human placenta) (Homo sapiens, UniProt P05106+P06756); test: competition radioligand binding assay, 125I-echistatin to αvβ3 receptor; conditions: αvβ3, inhibition of specific 125I-echistatin binding
T1 construct: αvβ3 receptor (purified from human placenta); from tissue; host or cells: human placenta
Method: The following assay procedure, which is a competition radioligand binding assay, was carried out to determine the activity of the foregoing compounds as αvβ3 antagonists. The competitive assay procedure described in Kumar, et. al., "Biochemical Characterization Of The Binding Of Echistatin To Integrin αvβ3 Receptor", Journal Of Pharmacology And Experimental Therapeutics, Vol. 283, No. 2, pp. 843-853 (1997) was employed. Thus, binding of ^125I-echistatin (radiolabeled by the chloramine-T method to a specific activity of 2000 Ci/mmol (Amersham, Chicago, Il.)) to αvβ3 receptor (purified from human placenta), both prepared as described in Kumar, et al., was competed by the compounds prepared in the foregoing examples. Purified αvβ3 receptor was coated onto Microlite-2 plates at a concentration of 50 ng/well. ^125I-echistatin was added to the wells to a final concentration of 0.05 nM in binding buffer (50 µl/well) in the presence of the competing test compound. The competing test compounds were employed at serially diluted concentrations ranging from 1 pM to 100 nM. After a 3 hour incubation at room temperature, the wells were washed, and radioactivity, reflecting binding by ^125 I-echistatin to αvβ3 receptors, was determined with Top Count (Packard). Each data point is an average of values from triplicate wells.
Specific binding of ^125I-echistatin was calculated as the difference between the amount of ^125I-echistatin bound in the absence (total binding) and the amount of ^125I-echistatin bound in the presence of a 200-fold molar excess of unlabeled echistatin (nonspecific binding). The efficacy of the test compounds for inhibiting specific binding of ^125I-echistatin to αvβ3 receptors was determined by plotting a graph of specific binding (y-axis) as a function of test compound concentration (x-axis). The concentration of test compound required to inhibit 50% of the specific binding (IC50) was determined from the plot. The IC50 may be directly converted mathematically to Ki, which is a measure of the receptor binding affinity of the compounds under the defined assay conditions.

[2] = target: purified αllbβ3 receptor (Homo sapiens, UniProt P05106+P08514); test: similar competitive binding assay with 125I-echistatin on αllbβ3 receptor, used for the specificity index; conditions: specificity index IC50 αllbβ3/ IC50 αvβ3; for Specificity α11bβ3 / αvβ3: Table 13
Method: To measure the relative affinity of the test compounds for αvβ3 receptors versus affinity for αllbβ3 receptors, similar competitive assays were carried out using purified αllbβ3 receptor and ^125I-echistatin (iodinated using the lactoperoxidase method). The specificity index, which is a measure of the relative binding affinity for αvβ3, versus αllbβ3, may be determined by dividing the IC50 value for αllbβ3 by the IC50 value for αvβ3.

CCCCOC(=O)N[C@@H](CNC(=O)c1ccc(CN(Cc2nc3ccccc3[nH]2)C(=O)Nc2ccc(F)cc2)cc1)C(=O)O [Example 5-88]
pIC50 ([1]; Table 16): 8.70 | Specificity αllbβ3 / αvβ3 ([2]; Table 16): 1657

CCOc1ccc(NC(=O)N(Cc2ccc(C(=O)NC[C@H](NC(=O)OCc3ccccc3)C(=O)O)cc2)Cc2nc3ccccc3[nH]2)cc1 [Example 5-32]
pIC50 ([1]; Table 10): 8.19 | SPECIFICITY αIIbβ3 / αvβ3 ([2]; Table 10): 151

COCC(=O)N(Cc1ccc(C(=O)NC[C@H](NS(=O)(=O)c2ccccc2)C(=O)O)cc1)Cc1nc2ccccc2[nH]1 [Example 5-80]
pIC50 ([1]; Table 16): 8.36 | Specificity αllbβ3 / αvβ3 ([2]; Table 16): 11

CCOCC(=O)N(Cc1ccc(C(=O)NC[C@H](NC(=O)OCc2ccccc2)C(=O)O)cc1)Cc1nc2ccccc2[nH]1 [Example 5-26]
pIC50 ([1]; Table 10): 8.46 | SPECIFICITY αIIbβ3 / αvβ3 ([2]; Table 10): 91

O=C(N[C@@H](CNC(=O)c1ccc(CN(Cc2nc3ccccc3[nH]2)C(=O)Nc2ccc(-c3ccccc3)cc2)cc1)C(=O)O)OCc1ccccc1 [Example 5-38]
pIC50 ([1]; Table 10): 7.87 | SPECIFICITY αIIbβ3 / αvβ3 ([2]; Table 10): 49

O=C(N[C@@H](CNC(=O)c1ccc(CN(Cc2nc3ccccc3[nH]2)C(=O)CCC2CCCC2)cc1)C(=O)O)OCc1ccccc1 [Example 5-14]
pIC50 ([1]; Table 10): 8.24 | SPECIFICITY αIIbβ3 / αvβ3 ([2]; Table 10): 117

CC(c1nc2ccccc2[nH]1)N(Cc1ccc(C(=O)NC[C@H](NC(=O)OCc2ccccc2)C(=O)O)cc1)C(=O)CCC1CCCC1 (stereo partly shown) [Example 5-79]
pIC50 ([1]; Table 15): 7.48 | SPECIFICITY αIIbβ3 / αvβ3 ([2]; Table 15): 19.0

CC(=O)N(CCc1nc2ccccc2[nH]1)Cc1ccc(C(=O)NCC(NC(=O)OCc2ccccc2)C(=O)O)cc1 (stereo not shown) [Example 5-71]
pIC50 ([1]; Table 14): 6.58 | Specificity αIIβ3 / αvβ3 ([2]; Table 14): 0.3

O=C(NC[C@H](NS(=O)(=O)c1ccccc1)C(=O)O)c1ccc(CN(Cc2nc3ccccc3[nH]2)C(=O)NC2CCCCC2)cc1 [Example 5-81]
pIC50 ([1]; Table 16): 8.09 | Specificity αllbβ3 / αvβ3 ([2]; Table 16): 8.0

CCOC(=O)[C@H](C)NC(=O)N(Cc1ccc(C(=O)NC[C@H](NC(=O)OCc2ccccc2)C(=O)O)cc1)Cc1nc2ccccc2[nH]1 [Example 5-50]
pIC50 ([1]; Table 10): 8.52 | SPECIFICITY αIIbβ3 / αvβ3 ([2]; Table 10): 805

CCCCOC(=O)N[C@@H](CNC(=O)c1ccc(CN(Cc2nc3ccccc3[nH]2)C(=O)N[C@@H](CCSC)C(=O)OCC)cc1)C(=O)O [Example 5-87]
pIC50 ([1]; Table 16): 8.70 | Specificity αllbβ3 / αvβ3 ([2]; Table 16): 1569

CCCCOC(=O)N[C@@H](CNC(=O)c1ccc(CN(Cc2nc3ccccc3[nH]2)C(=O)Nc2ccccc2)cc1)C(=O)O [Example 5-83]
pIC50 ([1]; Table 16): 8.74 | Specificity αllbβ3 / αvβ3 ([2]; Table 16): 1689

CCCCOC(=O)N[C@@H](CNC(=O)c1ccc(CN(Cc2nc3ccccc3[nH]2)C(=O)NC(C)C)cc1)C(=O)O [Example 5-84]
pIC50 ([1]; Table 16): 8.44 | Specificity αllbβ3 / αvβ3 ([2]; Table 16): 712

O=C(N[C@@H](CNC(=O)c1ccc(CN(Cc2nc3ccccc3[nH]2)C(=O)CCc2ccccc2)cc1)C(=O)O)OCc1ccccc1 [Example 5-16]
pIC50 ([1]; Table 10): 8.36 | SPECIFICITY αIIbβ3 / αvβ3 ([2]; Table 10): 899

O=C(N[C@@H](CNC(=O)c1ccc(CN(Cc2nc3ccccc3[nH]2)C(=S)NCCc2ccccc2)cc1)C(=O)O)OCc1ccccc1 [Example 5-31]
pIC50 ([1]; Table 10): 8.22 | SPECIFICITY αIIbβ3 / αvβ3 ([2]; Table 10): 80

CCCCOC(=O)N[C@@H](CNC(=O)c1ccc(CN(Cc2nc3ccccc3[nH]2)C(=O)N[C@@H](C)C(=O)OCC)cc1)C(=O)O [Example 5-89]
pIC50 ([1]; Table 16): 8.48 | Specificity αllbβ3 / αvβ3 ([2]; Table 16): 1094

O=C(O)CNC(=O)N(Cc1ccc(C(=O)NC[C@H](NC(=O)OCc2ccccc2)C(=O)O)cc1)Cc1nc2ccccc2[nH]1 [Example 5-96, N^3-[4-[(Benzimidazol-2-yl)methyl] [[(carboxymethyl)amino]carbonyl]aminomethylbenzoyl]-N^2-Cbz-L-2,3-diaminopropionic acid]
pIC50 ([1]; Table 16): 8.47 | Specificity αllbβ3 / αvβ3 ([2]; Table 16): 528

CCOC(=O)[C@H](CCSC)NC(=O)N(Cc1ccc(C(=O)NC[C@H](NC(=O)OCc2ccccc2)C(=O)O)cc1)Cc1nc2ccccc2[nH]1 [Example 5-48]
pIC50 ([1]; Table 10): 9.00 | SPECIFICITY αIIbβ3 / αvβ3 ([2]; Table 10): 2028

CC(=O)N(Cc1ccc(C(=O)NC[C@H](NC(=O)OCc2ccccc2)C(=O)O)cc1)C(C)c1nc2ccccc2[nH]1 (stereo partly shown) [Example 5-76]
pIC50 ([1]; Table 15): 7.30 | SPECIFICITY αIIbβ3 / αvβ3 ([2]; Table 15): 6.7

CCCCOC(=O)N[C@@H](CNC(=O)c1ccc(CN(Cc2nc3ccccc3[nH]2)C(=O)NCC(=O)OCC)cc1)C(=O)O [Example 5-86, N^3-[4-[(benzimidazol-2-yl)methyl][[(ethoxycarbonylmethyl)amino]-carbonyl]aminomethylbenzoyl]-N^2-(n-butoxycarbonyl)-L-2,3-diaminopropionic acid]
pIC50 ([1]; Table 16): 8.48 | Specificity αllbβ3 / αvβ3 ([2]; Table 16): 793

CCOC(=O)[C@H](Cc1ccccc1)NC(=O)N(Cc1ccc(C(=O)NC[C@H](NC(=O)OCc2ccccc2)C(=O)O)cc1)Cc1nc2ccccc2[nH]1 [Example 5-52]
pIC50 ([1]; Table 10): 8.40 | SPECIFICITY αIIbβ3 / αvβ3 ([2]; Table 10): 448

CCCCOC(=O)N[C@@H](CNC(=O)c1ccc(CN(Cc2nc3ccccc3[nH]2)C(=O)NCC(=O)O)cc1)C(=O)O [Example 5-97, N^3-[4-[(Benzimidazol-2-yl)methyl][[(carboxymethyl)amino]carbonyl]aminomethylbenzoyl]-N^2-(n-butoxycarbonyl)-L-2,3-diaminopropionic acid]
pIC50 ([1]; Table 16): 8.37 | Specificity αllbβ3 / αvβ3 ([2]; Table 16): 2600

CCCNC(=O)N(Cc1ccc(C(=O)NC[C@H](NC(=O)OCc2ccccc2)C(=O)O)cc1)Cc1nc2ccccc2[nH]1 [Example 5-39]
pIC50 ([1]; Table 10): 8.51 | SPECIFICITY αIIbβ3 / αvβ3 ([2]; Table 10): 223

CCOC(=O)c1ccc(NC(=O)N(Cc2ccc(C(=O)NC[C@H](NC(=O)OCc3ccccc3)C(=O)O)cc2)Cc2nc3ccccc3[nH]2)cc1 [Example 5-47]
pIC50 ([1]; Table 10): 8.66 | SPECIFICITY αIIbβ3 / αvβ3 ([2]; Table 10): 1252

CCOC(=O)CNC(=O)N(Cc1ccc(C(=O)NC[C@H](NC(=O)OCc2ccccc2)C(=O)O)cc1)Cc1nc2ccccc2[nH]1 [Example 5-45, N^3-[4-[(benzimidazol-2-yl)methyl][[(ethoxycarbonylmethyl)amino]-carbonyl]aminomethylbenzoyl]-N^2-Cbz-1-2,3-diaminopropionic acid]
pIC50 ([1]; Table 10): 8.66 | SPECIFICITY αIIbβ3 / αvβ3 ([2]; Table 10): 1333

CC(C)(C)OC(=O)N[C@@H](CNC(=O)c1ccc(CN(Cc2nc3ccccc3[nH]2)C(=O)CCC2CCCC2)cc1)C(=O)O [Example 5-64]
pIC50 ([1]; Table 12): 7.80 | Specificity αllbβ3 / αvβ3 ([2]; Table 12): 499

CC(C)NC(=O)N(Cc1ccc(C(=O)NC[C@H](NC(=O)OCc2ccccc2)C(=O)O)cc1)Cc1nc2cc(Cl)ccc2[nH]1 [Example 5-95]
pIC50 ([1]; Table 16): 8.77 | Specificity αllbβ3 / αvβ3 ([2]; Table 16): 775

O=C(O)CC(NC(=O)c1ccc(CNCc2nc3ccccc3[nH]2)cc1)c1ccccc1 (stereo not shown) [Example 5-65]
pIC50 ([1]; Table 13): 5.03 | Specificity α11bβ3 / αvβ3 [2]: 0.4

CC(=O)N(Cc1ccc(C(=O)NC(CC(=O)O)c2ccccc2)cc1)Cc1nc2ccccc2[nH]1 (stereo not shown) [Example 5-66]
pIC50 ([1]; Table 13): 5.02 | Specificity α11bβ3 / αvβ3 [2]: 0.4

O=C(N[C@@H](CNC(=O)c1ccc(CN(Cc2nc3ccccc3[nH]2)C(=O)COc2ccccc2)cc1)C(=O)O)OCc1ccccc1 [Example 5-19]
pIC50 ([1]; Table 10): 8.05 | SPECIFICITY αIIbβ3 / αvβ3 ([2]; Table 10): 34

CC(C)(C)OC(=O)N[C@@H](CNC(=O)c1ccc(CNCc2nc3ccccc3[nH]2)cc1)C(=O)O [Example 5-60]
pIC50 ([1]; Table 12): 7.60 | Specificity αllbβ3 / αvβ3 ([2]; Table 12): 90

CC(c1nc2ccccc2[nH]1)N(Cc1ccc(C(=O)NC[C@H](NC(=O)OCc2ccccc2)C(=O)O)cc1)C(=O)CCc1ccccc1 (stereo partly shown) [Example 5-78]
pIC50 ([1]; Table 15): 7.68 | SPECIFICITY αIIbβ3 / αvβ3 ([2]; Table 15): 33.9

O=C(N[C@@H](CNC(=O)c1ccc(CN(Cc2nc3ccccc3[nH]2)C(=O)Nc2ccccc2)cc1)C(=O)O)OCc1ccccc1 [Example 5-27]
pIC50 ([1]; Table 10): 8.81 | SPECIFICITY αIIbβ3 / αvβ3 ([2]; Table 10): 481

CC(NCc1ccc(C(=O)NC[C@H](NC(=O)OCc2ccccc2)C(=O)O)cc1)c1nc2ccccc2[nH]1 (stereo partly shown) [Example 5-75]
pIC50 ([1]; Table 15): 6.51 | SPECIFICITY αIIbβ3 / αvβ3 ([2]; Table 15): 10.2

O=C(O)CC(NC(=O)c1ccc(CN(Cc2nc3ccccc3[nH]2)C(=O)CCc2ccccc2)cc1)c1ccccc1 (stereo not shown) [Example 5-68]
pIC50 ([1]; Table 13): 5.18 | Specificity α11bβ3 / αvβ3 [2]: 0.4
